Experimental data as given in patent publication US20100272814A1, “METHOD AND MEANS FOR PRODUCING BRONCHORELAXATION” (priority 2007, published 2010).

How the values were obtained:
[1] = cited from earlier work; for absorption of the oral intake / oral dose: from food or intestine
[2] = tested on: airway obstruction in a patient with COPD; experiment: Administration of iodine on activated charcoal to a patient with COPD (spirometric evaluation and symptoms); type: in vivo, human; details: oral intake for a few days, subjective observation

Compound | half time in whole body ([1]; in vivo) | absorption of the oral intake / oral dose [1] | bronchorelaxing effect / relief of airway obstruction [2]
[CH3][Hg][Cl] [Methylmercury] | around 70 days | about 95% | –
II [elemental iodine] | – | – | no distinct bronchorelaxing effect was observed
[Cl][Hg][Cl] [mercuric chloride] | – | about 7% | –
